# Measured values from ChEMBL document CHEMBL1201862, “PubChem BioAssay data set” (2004).
# Activity calls are given as the source filed them.
# Key:
# [1] = test system: Streptococcus sp. 'group A'; assay: Streptococcus pyogenes SK(-)GAS viability under kanamycin – luminescence, BacTiterGlo, confirmation, counter-screen for streptokinase expression inhibitor project, dose response (AID 1900); format: functional, organism-based; conditions: Streptococcus sp. 'group A'
# [2] = test system: BJ; assay: BJ-TERT fibroblast viability loss – cell-based, RAS-independent, luminescence, dose response (AID 1933); format: functional; conditions: Homo sapiens
# [3] = molecular target: T1, Streptokinase A (Streptococcus pyogenes serotype M1, UniProt P10520); assay: viability-normalized secreted streptokinase activity reduction – plasminogen activation absorbance, OD405, dose response (AID 1914); format: functional, Streptococcus pyogenes M1 GAS;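 note: secreted streptokinase activity via plasminogen activation per viability signal from cell pellet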
# T1 sequence (P10520 whole entry): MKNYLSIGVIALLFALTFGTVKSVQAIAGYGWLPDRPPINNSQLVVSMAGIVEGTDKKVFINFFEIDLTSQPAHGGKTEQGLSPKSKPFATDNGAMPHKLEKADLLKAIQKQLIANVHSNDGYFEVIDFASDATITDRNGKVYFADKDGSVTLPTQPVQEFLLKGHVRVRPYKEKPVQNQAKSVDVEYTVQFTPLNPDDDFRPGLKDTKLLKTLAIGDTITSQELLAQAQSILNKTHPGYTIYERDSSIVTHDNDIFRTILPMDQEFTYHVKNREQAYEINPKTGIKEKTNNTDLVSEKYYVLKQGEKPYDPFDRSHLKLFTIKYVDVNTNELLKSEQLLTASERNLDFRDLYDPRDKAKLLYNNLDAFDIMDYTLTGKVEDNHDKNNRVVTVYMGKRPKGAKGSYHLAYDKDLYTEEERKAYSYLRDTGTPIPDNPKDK
# [4] = test system: BJ; assay: cells; format: functional, cell-based; conditions: Homo sapiens
# [5] = test system: BJ; assay: BJ-TERT-LT-ST fibroblast viability loss – cell-based, RAS-independent, luminescence, dose response (AID 1935); format: functional; conditions: Homo sapiens;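 note: BJ fibroblasts immortalized with TERT plus LT and ST oncogenes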
# [6] = DRD fibroblast viability loss – cell-based, non-viral oncogenic, luminescence, dose response (AID 1934); format: functional; conditions: Homo sapiens
# [7] = test system: Streptococcus; assay: GAS UMAA2166 growth inhibition – luminescence, BacTiterGlo, counter-screen for streptokinase expression inhibitor project, dose response (AID 1915); format: functional, organism-based; conditions: Streptococcus;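 note: potency for reduction of bacterial viability or growth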
# [8] = molecular target: T2, Small ubiquitin-related modifier 1 (Homo sapiens, UniProt P63165); assay: SUMO1 protein interaction blockers, potency – biochemical, fluorescence polarization, uHTS hits, dose response (AID 624382); format: functional; conditions: read-out: IC50_Mean
# [9] = molecular target: T2, Small ubiquitin-related modifier 1; assay: SUMO1 protein-protein binding blockers, potency – biochemical, FRET, dose response (AID 624383); format: functional; conditions: read-out: IC50_Mean
# [10] = molecular target: T3, Rac GTPase-activating protein 1 (Homo sapiens, UniProt Q9H0H5); assay: blockers of MgcRacGAP-driven Rac1 GTP hydrolysis – biochemical, ADP Hunter fluorescence, primary and confirmatory, confirmation (AID 624330); format: functional
# T3 sequence (Q9H0H5 whole entry): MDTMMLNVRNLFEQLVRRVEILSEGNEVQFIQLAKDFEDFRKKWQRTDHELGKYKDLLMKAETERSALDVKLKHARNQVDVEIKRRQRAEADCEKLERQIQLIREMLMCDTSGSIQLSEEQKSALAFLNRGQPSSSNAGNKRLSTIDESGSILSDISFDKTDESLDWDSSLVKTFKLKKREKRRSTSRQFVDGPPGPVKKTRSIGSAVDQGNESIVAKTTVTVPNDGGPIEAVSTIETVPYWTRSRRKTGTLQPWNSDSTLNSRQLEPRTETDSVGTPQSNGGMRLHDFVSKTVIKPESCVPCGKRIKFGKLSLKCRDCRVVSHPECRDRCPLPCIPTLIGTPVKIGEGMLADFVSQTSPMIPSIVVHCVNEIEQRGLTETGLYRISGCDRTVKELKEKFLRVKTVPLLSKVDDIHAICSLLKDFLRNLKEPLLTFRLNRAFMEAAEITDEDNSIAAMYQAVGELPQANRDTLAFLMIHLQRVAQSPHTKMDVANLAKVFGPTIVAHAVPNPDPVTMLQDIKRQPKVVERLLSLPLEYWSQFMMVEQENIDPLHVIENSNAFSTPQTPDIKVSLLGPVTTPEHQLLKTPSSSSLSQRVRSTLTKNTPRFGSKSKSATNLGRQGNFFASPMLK
# [11] = molecular target: T4, DNA repair protein RAD52 homolog (Homo sapiens, UniProt P43351); format: functional, biochemical
# T4 sequence (P43351 whole entry): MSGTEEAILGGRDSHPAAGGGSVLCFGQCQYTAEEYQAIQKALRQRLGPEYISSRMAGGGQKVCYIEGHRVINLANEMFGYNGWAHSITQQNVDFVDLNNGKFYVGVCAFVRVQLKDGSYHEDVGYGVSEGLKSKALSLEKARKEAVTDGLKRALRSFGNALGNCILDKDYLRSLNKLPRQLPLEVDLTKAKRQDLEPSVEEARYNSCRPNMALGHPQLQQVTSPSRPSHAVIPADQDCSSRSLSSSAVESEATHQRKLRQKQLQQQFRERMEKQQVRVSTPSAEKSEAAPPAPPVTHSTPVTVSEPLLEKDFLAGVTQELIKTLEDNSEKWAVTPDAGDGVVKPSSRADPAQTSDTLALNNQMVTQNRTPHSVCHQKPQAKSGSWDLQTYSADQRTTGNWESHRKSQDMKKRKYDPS
# [12] = test system: Escherichia coli; assay: microbe, parasite or virus in culture
# [13] = viability of PTEN-deleted HCT116 cells – cell-based, HCT116 PTEN knockout, dose response (AID 1047); format: functional;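 note: HCT116 colon tumor cells with PTEN knocked out; cells exposed to compound for 60 hours before readout; potency for loss of cell viability measured by luminescence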
# [14] = viability of HCT116 lacking mutant beta-catenin – cell-based, human colon tumor, dose response (AID 1045); format: functional;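 note: HCT116 colon tumor cells with beta catenin knocked out; cells exposed to compound for 60 hours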
# [15] = molecular target: T5, Microphthalmia-associated transcription factor (Homo sapiens, UniProt O75030); assay: reducers of TRPM1 reporter luminescence, concentration series – cell-based, SK-MEL-5, cherry-picked, set 3, MITF inhibitor project, dose response (AID 493073); format: functional;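 note: SK-MEL-5 melanoma cells with luciferase driven by the MITF target TRPM1 promoter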
# T5 sequence (O75030 whole entry): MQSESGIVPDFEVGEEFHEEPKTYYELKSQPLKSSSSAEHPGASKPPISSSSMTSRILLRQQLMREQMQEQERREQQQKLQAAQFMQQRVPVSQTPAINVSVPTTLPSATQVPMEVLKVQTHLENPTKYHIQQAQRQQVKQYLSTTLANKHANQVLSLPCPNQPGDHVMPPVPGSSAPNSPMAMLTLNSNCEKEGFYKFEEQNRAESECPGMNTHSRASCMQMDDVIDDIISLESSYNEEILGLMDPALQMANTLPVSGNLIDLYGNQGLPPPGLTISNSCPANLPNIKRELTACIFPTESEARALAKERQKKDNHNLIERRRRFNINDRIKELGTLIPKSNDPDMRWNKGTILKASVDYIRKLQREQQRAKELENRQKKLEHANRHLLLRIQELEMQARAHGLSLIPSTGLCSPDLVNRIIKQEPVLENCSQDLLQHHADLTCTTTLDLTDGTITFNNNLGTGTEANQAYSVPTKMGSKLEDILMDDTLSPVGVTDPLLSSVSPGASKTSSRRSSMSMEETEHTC
# [16] = test system: A-375; assay: MITF: Counter assay: A375 proliferation Measured in Cell-Based System Using Plate Reader - 2084-03_Inhibitor_Dose_DryPowder_Activity. [Related pubchem assays (depositor defined):AID488944]; format: functional; conditions: Homo sapiens
# [17] = molecular target: Cytochrome P450 2D6 (Homo sapiens, UniProt P10635);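 note: CYP2D6 member of a cytochrome P450 panel assay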
# [18] = molecular target: T6, Voltage-gated N-type calcium channel alpha-1B subunit/Amyloid beta A4 precursor protein-binding family A member 1 (Homo sapiens, UniProt Q00975+Q02410); format: protein assay
# [19] = molecular target: T6, Voltage-gated N-type calcium channel alpha-1B subunit/Amyloid beta A4 precursor protein-binding family A member 1; format: protein assay; remark: listed apart in the source
# [20] = molecular target: T7, Mannose-6-phosphate isomerase (Homo sapiens, UniProt P34949); assay: MPI inhibition at elevated mannose 6-phosphate – biochemical, fluorescence intensity, high mannose 6-phosphate, primary screen (AID 1220)
# T7 sequence (P34949 whole entry): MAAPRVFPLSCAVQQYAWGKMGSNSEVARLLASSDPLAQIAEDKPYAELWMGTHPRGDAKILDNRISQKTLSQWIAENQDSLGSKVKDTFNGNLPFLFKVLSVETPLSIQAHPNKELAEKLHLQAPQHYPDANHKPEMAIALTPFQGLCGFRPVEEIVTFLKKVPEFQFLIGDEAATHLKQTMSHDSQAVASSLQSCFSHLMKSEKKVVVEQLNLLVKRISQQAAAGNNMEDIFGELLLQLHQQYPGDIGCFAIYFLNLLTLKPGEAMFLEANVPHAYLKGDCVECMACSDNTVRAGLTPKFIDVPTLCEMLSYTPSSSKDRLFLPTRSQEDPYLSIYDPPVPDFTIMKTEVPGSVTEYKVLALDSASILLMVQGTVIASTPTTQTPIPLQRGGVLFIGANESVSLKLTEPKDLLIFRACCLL
# [21] = molecular target: T7, Mannose-6-phosphate isomerase; assay: phosphomannose isomerase inhibition – biochemical, fluorescence intensity, confirmation (AID 1535)
# [22] = molecular target: T8, Phosphomannomutase 2 (Homo sapiens, UniProt O15305); assay: Counter screen SAR assay for PMM2 inhibitors via a fluorescence intensity assay. [Related pubchem assays (depositor defined):AID1545, AID1574]
# T8 sequence (O15305 whole entry): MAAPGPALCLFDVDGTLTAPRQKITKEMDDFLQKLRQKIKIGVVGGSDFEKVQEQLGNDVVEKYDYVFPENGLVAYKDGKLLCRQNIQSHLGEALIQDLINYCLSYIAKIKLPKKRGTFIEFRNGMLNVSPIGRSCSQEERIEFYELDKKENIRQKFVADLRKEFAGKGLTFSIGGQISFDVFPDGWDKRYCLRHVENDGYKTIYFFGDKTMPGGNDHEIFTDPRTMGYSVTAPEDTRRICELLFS
# [23] = molecular target: Eukaryotic translation initiation factor 4E (Mus musculus, UniProt P63073); assay: blockers of eIF4G binding by eIF4E – biochemical, TR-FRET, dose response (AID 855); format: functional;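 note: potency for disrupting eIF4E binding to eIF4GI seen as loss of FRET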
# [24] = molecular target: T9, X-box-binding protein 1 (Homo sapiens, UniProt P17861); format: functional, Cricetulus griseus;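 note: confirmatory dose-response counter-screen serving a CHOP assay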
# T9 sequence (P17861 whole entry): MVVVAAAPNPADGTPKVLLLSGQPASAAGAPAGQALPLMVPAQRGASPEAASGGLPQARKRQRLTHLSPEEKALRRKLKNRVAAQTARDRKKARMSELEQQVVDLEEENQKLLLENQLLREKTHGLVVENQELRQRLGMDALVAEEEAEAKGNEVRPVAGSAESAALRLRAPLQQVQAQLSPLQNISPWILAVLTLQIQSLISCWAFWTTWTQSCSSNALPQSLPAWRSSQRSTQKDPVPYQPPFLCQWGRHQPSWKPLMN
# [25] = molecular target: Heat shock protein HSP 90-alpha (Homo sapiens, UniProt P07900); format: functional, organism-based
# [26] = viability loss in HeLa cells – cytotoxicity control for MgcRacGAP inhibitor project, dose response (AID 624300); format: functional
# T6 sequence (Q00975 whole entry): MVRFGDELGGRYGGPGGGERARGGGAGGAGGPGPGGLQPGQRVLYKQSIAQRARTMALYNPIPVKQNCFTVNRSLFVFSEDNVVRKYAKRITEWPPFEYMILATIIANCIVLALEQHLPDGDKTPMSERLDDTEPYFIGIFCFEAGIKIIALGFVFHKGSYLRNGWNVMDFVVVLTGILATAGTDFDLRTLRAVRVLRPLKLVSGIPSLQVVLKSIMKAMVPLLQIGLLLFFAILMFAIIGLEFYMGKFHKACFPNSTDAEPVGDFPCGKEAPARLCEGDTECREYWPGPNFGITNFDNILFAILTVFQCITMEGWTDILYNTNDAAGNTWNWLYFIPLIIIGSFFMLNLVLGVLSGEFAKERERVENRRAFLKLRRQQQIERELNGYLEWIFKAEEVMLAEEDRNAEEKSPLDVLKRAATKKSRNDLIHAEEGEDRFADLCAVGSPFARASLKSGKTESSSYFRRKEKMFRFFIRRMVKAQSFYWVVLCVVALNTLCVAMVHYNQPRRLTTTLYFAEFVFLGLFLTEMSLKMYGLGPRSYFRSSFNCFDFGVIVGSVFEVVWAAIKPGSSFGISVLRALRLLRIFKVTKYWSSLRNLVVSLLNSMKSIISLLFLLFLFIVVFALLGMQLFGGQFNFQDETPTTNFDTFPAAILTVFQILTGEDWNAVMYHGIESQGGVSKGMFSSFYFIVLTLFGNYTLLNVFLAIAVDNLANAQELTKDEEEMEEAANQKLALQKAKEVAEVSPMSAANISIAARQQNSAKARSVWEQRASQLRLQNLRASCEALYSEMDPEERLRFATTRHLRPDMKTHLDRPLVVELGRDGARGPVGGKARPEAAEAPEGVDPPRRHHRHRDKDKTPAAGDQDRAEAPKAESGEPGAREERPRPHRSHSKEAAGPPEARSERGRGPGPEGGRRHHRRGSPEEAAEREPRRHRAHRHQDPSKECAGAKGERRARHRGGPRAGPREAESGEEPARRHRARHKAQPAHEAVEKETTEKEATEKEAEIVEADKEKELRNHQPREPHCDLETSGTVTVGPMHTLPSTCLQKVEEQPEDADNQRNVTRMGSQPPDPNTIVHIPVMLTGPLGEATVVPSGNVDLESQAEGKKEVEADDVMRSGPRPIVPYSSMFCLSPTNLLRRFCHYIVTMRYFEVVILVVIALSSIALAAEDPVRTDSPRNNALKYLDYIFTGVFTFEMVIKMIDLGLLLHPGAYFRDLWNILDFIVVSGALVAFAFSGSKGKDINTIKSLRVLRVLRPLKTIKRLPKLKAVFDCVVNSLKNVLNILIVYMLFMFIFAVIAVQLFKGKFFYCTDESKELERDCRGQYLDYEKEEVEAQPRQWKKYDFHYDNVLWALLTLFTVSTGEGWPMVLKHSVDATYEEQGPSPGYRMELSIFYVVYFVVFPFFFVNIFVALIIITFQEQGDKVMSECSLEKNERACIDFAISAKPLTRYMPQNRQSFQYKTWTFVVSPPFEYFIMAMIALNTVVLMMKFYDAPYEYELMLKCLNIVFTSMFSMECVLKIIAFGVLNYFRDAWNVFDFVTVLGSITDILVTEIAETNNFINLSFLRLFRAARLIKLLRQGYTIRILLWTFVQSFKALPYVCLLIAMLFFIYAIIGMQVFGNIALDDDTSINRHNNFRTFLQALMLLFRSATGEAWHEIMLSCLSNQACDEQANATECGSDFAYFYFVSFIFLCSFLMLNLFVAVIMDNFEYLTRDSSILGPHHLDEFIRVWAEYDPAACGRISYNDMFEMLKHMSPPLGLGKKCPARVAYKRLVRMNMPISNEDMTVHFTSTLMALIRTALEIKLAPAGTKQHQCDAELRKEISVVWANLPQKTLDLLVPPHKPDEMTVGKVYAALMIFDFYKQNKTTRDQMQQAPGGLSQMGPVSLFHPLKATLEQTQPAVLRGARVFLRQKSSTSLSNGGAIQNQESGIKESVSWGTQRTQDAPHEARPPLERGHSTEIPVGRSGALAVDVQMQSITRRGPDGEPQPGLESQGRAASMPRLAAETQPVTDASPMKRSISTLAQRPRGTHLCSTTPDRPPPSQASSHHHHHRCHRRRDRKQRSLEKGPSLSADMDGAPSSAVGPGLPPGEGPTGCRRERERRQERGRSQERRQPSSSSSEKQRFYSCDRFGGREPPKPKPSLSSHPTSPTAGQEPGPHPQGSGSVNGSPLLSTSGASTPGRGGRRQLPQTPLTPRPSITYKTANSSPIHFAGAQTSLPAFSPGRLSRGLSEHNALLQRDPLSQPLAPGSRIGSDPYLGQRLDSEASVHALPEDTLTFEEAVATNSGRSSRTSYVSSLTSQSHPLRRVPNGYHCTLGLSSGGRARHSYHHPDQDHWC
# T6 sequence (Q02410 whole entry): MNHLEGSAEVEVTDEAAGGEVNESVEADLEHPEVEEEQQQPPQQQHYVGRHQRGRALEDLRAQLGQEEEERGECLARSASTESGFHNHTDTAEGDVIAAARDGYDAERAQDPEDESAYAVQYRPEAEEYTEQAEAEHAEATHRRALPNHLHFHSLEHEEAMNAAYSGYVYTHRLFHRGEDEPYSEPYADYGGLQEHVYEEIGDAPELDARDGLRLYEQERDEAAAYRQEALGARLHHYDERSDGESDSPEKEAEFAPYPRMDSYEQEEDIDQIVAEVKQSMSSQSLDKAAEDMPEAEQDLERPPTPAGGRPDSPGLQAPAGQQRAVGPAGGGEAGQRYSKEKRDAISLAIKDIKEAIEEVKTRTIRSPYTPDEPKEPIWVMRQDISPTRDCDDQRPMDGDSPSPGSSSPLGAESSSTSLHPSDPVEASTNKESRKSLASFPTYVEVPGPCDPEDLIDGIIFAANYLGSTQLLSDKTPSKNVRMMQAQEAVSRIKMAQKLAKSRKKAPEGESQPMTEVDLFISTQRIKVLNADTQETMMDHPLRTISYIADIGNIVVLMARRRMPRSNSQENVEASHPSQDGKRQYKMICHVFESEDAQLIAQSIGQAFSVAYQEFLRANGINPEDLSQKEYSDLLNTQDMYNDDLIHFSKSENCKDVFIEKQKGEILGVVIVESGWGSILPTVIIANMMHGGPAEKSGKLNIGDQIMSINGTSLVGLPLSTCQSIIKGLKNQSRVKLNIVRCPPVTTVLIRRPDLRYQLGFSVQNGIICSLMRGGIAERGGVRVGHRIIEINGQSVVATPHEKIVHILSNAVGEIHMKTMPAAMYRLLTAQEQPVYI
# T2 sequence (P63165 whole entry): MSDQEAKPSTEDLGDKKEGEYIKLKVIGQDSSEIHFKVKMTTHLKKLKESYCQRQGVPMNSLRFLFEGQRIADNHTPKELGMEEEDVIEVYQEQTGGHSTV
# Sequence of Eukaryotic translation initiation factor 4E (P63073 whole entry): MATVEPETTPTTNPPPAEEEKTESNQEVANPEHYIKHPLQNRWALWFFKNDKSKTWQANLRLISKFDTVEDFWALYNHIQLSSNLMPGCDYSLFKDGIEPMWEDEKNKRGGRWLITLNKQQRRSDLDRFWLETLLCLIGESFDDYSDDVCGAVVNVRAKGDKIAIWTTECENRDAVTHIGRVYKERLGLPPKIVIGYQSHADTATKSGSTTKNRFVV
# Sequence of Cytochrome P450 2D6 (P10635 whole entry): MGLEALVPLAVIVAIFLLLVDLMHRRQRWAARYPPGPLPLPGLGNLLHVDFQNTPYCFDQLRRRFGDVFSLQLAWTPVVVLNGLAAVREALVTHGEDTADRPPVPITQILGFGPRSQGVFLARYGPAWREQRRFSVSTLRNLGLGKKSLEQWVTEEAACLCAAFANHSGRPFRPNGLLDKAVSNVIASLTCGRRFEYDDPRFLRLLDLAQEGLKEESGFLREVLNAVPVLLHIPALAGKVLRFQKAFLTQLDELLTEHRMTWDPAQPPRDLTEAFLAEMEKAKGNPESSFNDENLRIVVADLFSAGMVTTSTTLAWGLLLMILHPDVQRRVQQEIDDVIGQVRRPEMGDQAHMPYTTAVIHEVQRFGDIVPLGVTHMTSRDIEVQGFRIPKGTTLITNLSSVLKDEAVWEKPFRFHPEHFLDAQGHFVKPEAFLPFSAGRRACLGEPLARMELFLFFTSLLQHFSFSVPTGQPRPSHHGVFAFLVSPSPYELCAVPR
structure (smiles),measurement,setting,value
Cn1ccc(=Nc2ccc(NC(=O)c3ccc(/N=c4\ccn(C)c5ccc([N+](=O)[O-])cc45)cc3)cc2)cc1,EC50,[1],0.976 µM (active)
same,EC50,[2],15.3 µM (active)
same,EC50,[3],28 µM (inconclusive)
same,EC50,[4],18 µM (inconclusive)
same,EC50,[5],> 150 µM (inconclusive)
same,EC50,[6],17.1 µM (active)
same,EC50,[7],2.47 µM (active)
same,IC50,[8],> 66.6 µM (inactive)
same,IC50,[9],13.1 µM (active)
same,IC50,[10],35.5 µM (active)
same,AC50,[11],1.28 µM (active)
same,AC50,[12],12 µM (active)
O=C(N/N=C/c1cc([N+](=O)[O-])ccc1N1CCNCC1)c1ccc([N+](=O)[O-])cc1,EC50,[13],11.1 µM (active)
same,EC50,[14],12.1 µM (active)
same,AC50,[15],8.19 µM (active)
same,AC50,[16],24.1 µM (active)
same,AC50,[17],25.1 µM (inconclusive)
CC(C)C(c1nnnn1C1CCCC1)N1CCC(C(N)=O)CC1 (stereo not drawn),AC50,[12],164 µM (active)
Clc1nss/c1=N\c1ccc(Br)cc1,IC50,[18],11.6 µM (active)
same,IC50,[19],4.16 µM (active)
same,IC50,[20],> 50 µM (not active)
same,IC50,[21],7.28 µM (active)
same,IC50,[22],> 100 µM (inactive)
same,IC50,[23],50 µM (inactive)
same,Absolute IC50 (XBP1),[24],< 10 µM
same,AC50,[25],24.4 µM (active)
same,CC50,[26],100 µM (active)
same,IC50,[10],37.5 µM (active)
